Laboratory results as given in patent publication US10336792B2, “Antimicrobial peptide dendrimers” (priority 2014, dated 2019).
Converted amounts (≈) assume the structure as drawn. Where two headings read alike, the source gives them in different places. Positions of bridges follow the written chain, without caps; N, C: chain ends. Residues, ends and D or L forms follow the SMILES beside them. Groups on a side chain read outwards from the residue. Chains are numbered I, II in the order given. *: point of attachment. LeuLys(Leu) = CC(C)C[C@H](N)C(=O)NCCCC[C@H](NC(=O)[C@@H](N)CC(C)C)C(=O)*; X2 = NCCCC[C@H](N)C(=O)NCCCC[C@H](NC(=O)[C@@H](N)CCCCN)C(=O)*; X1 = CCCCCCCCCCCCCCCCCCCCCCCC(=O)*

Columns and labels:
Format in all cases: cell-based
[1] = system: Escherichia coli (strain DH5α)
Protocol: (§1) Antimicrobial activity was assayed against Bacillus subtilis (strain BR151), Escherichia coli (strain DH5α) and Pseudomonas aeruginosa (strain PA01). Microdilution broth method was used to determine the minimal inhibitory concentration (MIC). A colony of bacteria was grown in LB-medium overnight at 37° C. The concentration was quantified by measuring absorbance at 600 nm and diluted to OD600=0.1 (1×10^8 CFU/mL). The samples were prepared as stock solutions of 1 mg mL^−1 in H2O and diluted serially by ⅔ in nutrient LB in a 96-well microtiterplate (Cornstar, polypropylene, untreated). The sample solutions (50 μL) were mixed with the diluted bacterial suspension with an OD600 nm of 0.001 (50 μL). […] The plates were incubated at 37° C. until satisfactory growth (18-24 h). For each test, two columns of the plate were kept for sterility control (SC, broth only) and growth control (GC, broth with bacterial inoculums, no antibiotics). 10 μL of a solution of MTT (0.1% in H2O) was added to each well. The minimal inhibitory concentration (MIC) was defined as the lowest concentration of the antimicrobial substance (peptide dendrimer) that inhibited visible growth of the tested bacteria (yellow) with the unaided eye. For microbiological study the linear peptide LysTyrLysLysAlaLeuLysLysLeuAlaLysLeuLeu (SEQ ID No. 1) was used as reference.
(§2) The AMPD library was tested for their antimicrobial activity against B. subtilis BR151, a Gram-positive bacterium and E. coli DH5α, another Gram-negative bacterium, to cover a broader spectrum of different bacteria. […] Therefore no explicit SAR can be established, but clearly the hydrophobic amino acids Ala and Tyr seem to have a significant influence in reducing activity.

[2] = system: Bacillus subtilis (strain BR151)
Protocol: as §1, §2

[3] = system: Pseudomonas aeruginosa (strain PA01); assay: microbe, parasite or virus in culture; settings: strain
Method in brief: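 Broth microdilution MIC against P. aeruginosa PAO1 in LB: peptides serially diluted by ⅔, bacteria added at OD600 0.001 and incubated 18–24 h at 37 °C. MTT added; MIC is the lowest concentration preventing visible growth.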

| Compound | MIC E. coli DH5α ([1]; DH5α) [µg/mL] | MIC B. subtilis BR151 ([2]; strain BR151) [µg/mL] | MIC P. aeruginosa PAO1 [3] [µg/mL] | MIC E. coli DH5α ([1]; LB medium) [µg/mL] | MIC B. subtilis BR151 ([2]; LB medium) [µg/mL] |
| --- | --- | --- | --- | --- | --- |
| CC(C)C[C@H](NC(=O)[C@H](CCCCN)NC(=O)[C@H](CC(C)C)NC(=O)[C@H](CCCCN)NC(=O)[C@H](CC(C)C)NC(=O)[C@H](CCCCN)NC(=O)[C@H](CC(C)C)NC(=O)[C@H](CCCCN)NC(=O)[C@H](CC(C)C)NC(=O)[C@H](CCCCN)NC(=O)[C@H](CC(C)C)NC(=O)[C@H](CCCCN)NC(=O)[C@H](CC(C)C)NC(=O)[C@@H](N)CCCCN)C(N)=O [MSt-117, KLKLKLKLKLKLKL, reference compound] (H-KLKLKLKLKLKLKL-NH2) | 13 (≈ 7.62 µM) | 14 (≈ 8.2 µM) |  |  |  |
| CC(C)C[C@H](NC(=O)[C@H](CC(C)C)NC(=O)[C@H](CCCCNC(=O)[C@H](CC(C)C)NC(=O)[C@H](CC(C)C)NC(=O)[C@H](CCCCNC(=O)[C@H](CCCCN)NC(=O)[C@H](CCCCN)NC(=O)[C@H](CCCCNC(=O)[C@H](CCCCN)NC(=O)[C@@H](N)CCCCN)NC(=O)[C@H](CCCCN)NC(=O)[C@@H](N)CCCCN)NC(=O)[C@H](CCCCN)NC(=O)[C@H](CCCCN)NC(=O)[C@H](CCCCNC(=O)[C@H](CCCCN)NC(=O)[C@@H](N)CCCCN)NC(=O)[C@H](CCCCN)NC(=O)[C@@H](N)CCCCN)NC(=O)[C@H](CC(C)C)NC(=O)[C@H](CC(C)C)NC(=O)[C@H](CCCCNC(=O)[C@H](CCCCN)NC(=O)[C@H](CCCCN)NC(=O)[C@H](CCCCNC(=O)[C@H](CCCCN)NC(=O)[C@@H](N)CCCCN)NC(=O)[C@H](CCCCN)NC(=O)[C@@H](N)CCCCN)NC(=O)[C@H](CCCCN)NC(=O)[C@H](CCCCN)NC(=O)[C@H](CCCCNC(=O)[C@H](CCCCN)NC(=O)[C@@H](N)CCCCN)NC(=O)[C@H](CCCCN)NC(=O)[C@@H](N)CCCCN)C(N)=O [MSt-140, (KK)8(KKK)4(KLL)2(KLL)] (I: H-KKK([Lys-Lys])KKKLLKLL-NH2 / II: H-KKK([Lys-Lys])KKKLL / III: H-KKK([Lys-Lys])KK / IV: H-KKK([Lys-Lys])KK; amide I:6-IV:C, I:9-II:C, II:6-III:C) | >95 | 6 (≈ 1.28 µM) |  |  |  |
| CC(C)C[C@H](NC(=O)[C@H](CCCCNC(=O)[C@H](CC(C)C)NC(=O)[C@H](CCCCNC(=O)[C@H](CCCCN)NC(=O)[C@H](CCCCNC(=O)[C@@H](N)CCCCN)NC(=O)[C@@H](N)CCCCN)NC(=O)[C@H](CCCCN)NC(=O)[C@H](CCCCNC(=O)[C@@H](N)CCCCN)NC(=O)[C@@H](N)CCCCN)NC(=O)[C@H](CC(C)C)NC(=O)[C@H](CCCCNC(=O)[C@H](CCCCN)NC(=O)[C@H](CCCCNC(=O)[C@@H](N)CCCCN)NC(=O)[C@@H](N)CCCCN)NC(=O)[C@H](CCCCN)NC(=O)[C@H](CCCCNC(=O)[C@@H](N)CCCCN)NC(=O)[C@@H](N)CCCCN)C(N)=O [MSt-148, (K)8(KK)4(KL)2(KL)NH2] (I: H-KK(Lys)KK([Lys-X2])LKL-NH2 / II: H-KK(Lys)KK([Lys-X2])L; amide I:6-II:C; N-terminus assumed) | >90 | 12 (≈ 4.3 µM) |  |  |  |
| CC(C)C[C@H](NC(=O)[C@H](CCCCNC(=O)[C@@H](N)CC(C)C)NC(=O)[C@@H](N)CC(C)C)C(=O)NCCCC[C@H](NC(=O)[C@H](CC(C)C)NC(=O)[C@H](CCCCNC(=O)[C@@H](N)CC(C)C)NC(=O)[C@@H](N)CC(C)C)C(=O)N[C@@H](CCCCN)C(=O)NCCCC[C@H](NC(=O)[C@H](CCCCN)NC(=O)[C@H](CCCCNC(=O)[C@H](CC(C)C)NC(=O)[C@H](CCCCNC(=O)[C@@H](N)CC(C)C)NC(=O)[C@@H](N)CC(C)C)NC(=O)[C@H](CC(C)C)NC(=O)[C@H](CCCCNC(=O)[C@@H](N)CC(C)C)NC(=O)[C@@H](N)CC(C)C)C(=O)N[C@@H](CCCCN)C(N)=O [MSt-149, (L)8(KL)4(KK)2(KK)NH2] (I: H-LK(Leu)LK([Leu-LeuLys(Leu)])KKK-NH2 / II: H-LK(Leu)LK([Leu-LeuLys(Leu)])K; amide I:6-II:C; N-terminus assumed) | >90 | 8 (≈ 3.01 µM) |  |  |  |
| CC(C)C[C@H](NC(=O)[C@H](CCCCNC(=O)[C@H](CCCCN)NC(=O)[C@H](CC(C)C)NC(=O)[C@H](CCCCNC(=O)[C@H](CCCCN)NC(=O)[C@H](CC(C)C)NC(=O)[C@H](CCCCNC(=O)[C@H](CCCCN)NC(=O)[C@@H](N)CC(C)C)NC(=O)[C@H](CCCCN)NC(=O)[C@@H](N)CC(C)C)NC(=O)[C@H](CCCCN)NC(=O)[C@H](CC(C)C)NC(=O)[C@H](CCCCNC(=O)[C@H](CCCCN)NC(=O)[C@@H](N)CC(C)C)NC(=O)[C@H](CCCCN)NC(=O)[C@@H](N)CC(C)C)NC(=O)[C@H](CCCCN)NC(=O)[C@H](CC(C)C)NC(=O)[C@H](CCCCNC(=O)[C@H](CCCCN)NC(=O)[C@H](CC(C)C)NC(=O)[C@H](CCCCNC(=O)[C@H](CCCCN)NC(=O)[C@@H](N)CC(C)C)NC(=O)[C@H](CCCCN)NC(=O)[C@@H](N)CC(C)C)NC(=O)[C@H](CCCCN)NC(=O)[C@H](CC(C)C)NC(=O)[C@H](CCCCNC(=O)[C@H](CCCCN)NC(=O)[C@@H](N)CC(C)C)NC(=O)[C@H](CCCCN)NC(=O)[C@@H](N)CC(C)C)C(=O)N[C@@H](CCCCN)C(N)=O [MSt-199, (LK)8(KLK)4(KLK)2(KLK)] (I: H-LKK([Lys-Leu])LKKLKKLK-NH2 / II: H-LKK([Lys-Leu])LKKLK / III: H-LKK([Lys-Leu])LK / IV: H-LKK([Lys-Leu])LK; amide I:6-IV:C, I:9-II:C, II:6-III:C) |  | 3 (≈ 0.662 µM) | 9 (≈ 1.98 µM) |  |  |
| CCCCCCCCCCCCCCCCCCCCCCCC(=O)NCCCC[C@H](NC(=O)[C@H](CC(C)C)NC(=O)[C@H](CCCCN)NC(=O)[C@H](CCCCNC(=O)[C@H](CC(C)C)NC(=O)[C@H](CCCCN)NC(=O)[C@H](CCCCNC(=O)[C@H](CC(C)C)NC(=O)[C@@H](N)CCCCN)NC(=O)[C@H](CC(C)C)NC(=O)[C@@H](N)CCCCN)NC(=O)[C@H](CC(C)C)NC(=O)[C@H](CCCCN)NC(=O)[C@H](CCCCNC(=O)[C@H](CC(C)C)NC(=O)[C@@H](N)CCCCN)NC(=O)[C@H](CC(C)C)NC(=O)[C@@H](N)CCCCN)C(N)=O [MSt-287, (KL)4(KKL)2(KKLKC24)] (I: H-KLK([Leu-Lys])KLKKLK(X1)-NH2 / II: H-KLK([Leu-Lys])KL; amide I:6-II:C) | 13 (≈ 5.06 µM) | 26 (≈ 10.1 µM) |  |  |  |
| (KL)32(KKL)16(KKLCxKL)8(KKL)4(KKL)2KKL [CCS-15] |  |  |  | 8 | 26 |
